Test results from patent publication EP0397859A1, “PYRAZINE DERIVATIVES AND MEDICINAL PREPARATION CONTAINING SAME” (TERUMO KABUSHIKI KAISHA, priority 1987, dated 1989).
Where two headings read alike, the source gives them in different places.

What was measured:
platelet aggregation = assay: Platelet aggregation-inhibiting action in rabbit platelet-rich plasma (aggregometer); type: cell-based; conditions: Oryctolagus cuniculus, 0.05 h, rabbit PRP, 37°C, 3 min incubation
Protocol: Blood was drawn from the carotid artery of a rabbit using a syringe containing 1/10 volume of a 3.8% solution of sodium citrate. The blood was centrifuged to obtain platelet-rich plasma (PRP: 5 x 10^5 cells/µl).
In a cuvette were placed 200 µl of said PRP and 25 µl of a physiological saline solution. The cuvette was set on an aggregometer and warmed at 37°C for 2 min. Into the cuvette was then added 1.25 µl of an ethanol solution of a pyrazine derivative to be tested. After incubated for 3 min., a solution of a platelet-aggregation inducer, arachidonic acid or collagen, was added thereto. Measurements were made for platelet aggregation using an aggregometer (Hematracer IV; Niko Biosciences K.K.). […] Acetylsalicylic acid was used as a comparison.
The 50% inhibitory concentration as shown in the table means the concentration of the solution of a pyrazine derivative required for inhibiting the aggregation of platelets by introducing said pyrazine derivative when the platelet aggregatiqn in the absence of any pyrazine derivative of the invention is taken as 100%.

cyclooxygenase = molecular target: T1, cyclooxygenase (Oryctolagus cuniculus, UniProt O97554); assay: Cyclooxygenase-inhibiting activity, washed platelets as enzyme source, 14C-arachidonic acid, TLC radiochromatogram; type: biochemical; conditions: washed rabbit platelets, 37°C for 3 min; sum of radioactivities of prostaglandin E2, prostaglandin D2 and HHT; read-out: 50% inhibitory concentration (mole)
T1 construct: The washed platelets thus produced were used as an enzyme source for cyclooxygenase; from tissue; host or cells: washed platelets from rabbit carotid artery blood
T1 sequence (O97554 31-606): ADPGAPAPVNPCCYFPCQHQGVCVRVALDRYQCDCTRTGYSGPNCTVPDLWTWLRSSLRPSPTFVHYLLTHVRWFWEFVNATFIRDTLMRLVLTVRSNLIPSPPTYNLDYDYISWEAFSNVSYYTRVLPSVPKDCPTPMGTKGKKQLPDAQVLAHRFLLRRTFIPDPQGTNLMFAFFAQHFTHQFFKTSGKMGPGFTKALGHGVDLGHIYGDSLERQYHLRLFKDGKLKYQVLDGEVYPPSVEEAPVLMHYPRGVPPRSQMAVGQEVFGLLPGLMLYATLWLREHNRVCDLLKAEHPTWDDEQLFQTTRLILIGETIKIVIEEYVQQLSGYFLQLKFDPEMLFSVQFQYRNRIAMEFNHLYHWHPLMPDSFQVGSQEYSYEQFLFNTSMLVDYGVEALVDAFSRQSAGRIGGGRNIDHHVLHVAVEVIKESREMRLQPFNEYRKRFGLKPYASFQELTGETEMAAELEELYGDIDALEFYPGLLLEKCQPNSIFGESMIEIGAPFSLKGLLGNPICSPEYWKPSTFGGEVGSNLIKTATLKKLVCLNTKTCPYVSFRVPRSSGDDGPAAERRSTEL
Protocol: In a centrifuge tube was collected 9 volumes of blood from the carotid artery of a rabbit per volume of a 3.8% solution of sodium citric acid contained therein using a canula. Platelet-rich plasma was obtained by centrifugation. To the platelet-rich plasma was added a 77 mM solution of EDTA in a volume of 1/10 per volume of said plasma. After mixing thoroughly, the mixture was subjected to centrifugation at 2500 r.p.m. at room temperature for 10 min. The supernatant was discarded, and the platelets were suspended in approximately 3 ml of a wash (134 mM of sodium chloride, 15 mM of trisaminomethane, 1 mM of EDTA and 5 mM of D-glucose dissolved in distilled water with a pH adjusted to 7.4 with 1N-hydrogen chloride), and the suspension was centrifuged at 2000 rpm at room temperature for 10 min. The supernatant was discarded, and the precipitated platelets were suspended in a 1/15 M phosphate buffer solution at pH 8.0 to adjust the number of the platelets to 6-8 x 10^5 cells/µl.
The washed platelets thus produced were used as an enzyme source for cyclooxygenase. […]
Development was made with a developing solvent (chloroform/methanol/acetic acid/water = 90:8:1:0.8) by approximately 18 cm, and then the inhibiting activity was determined by measuring sum of the radioactivities of prostaglandin E2' prostaglandin D2 and HHT by a radiochromatogram scanner.

[1] = aggregation caused by arachidonic acid (80 µM), read-out: 50% aggregation-inhibitory concentration (mole) Arachidonic acid
[2] = aggregation caused by collagen (15 µg/ml), read-out: 50% aggregation-inhibitory concentration (mole) Collagen

For `Clc1cccc(Cc2cnc(-c3ccccc3)c(-c3ccccc3)n2)c1` [Example 6, 2,3-diphenyl-5-(m-chlorobenzyl)pyrazine], the IC50 (platelet aggregation; [1]) was 4.5 µM and the IC50 (platelet aggregation; [2]) was 44 µM.

With `COC(=O)c1cnc(-c2ccc(OC)cc2)c(-c2ccc(OC)cc2)n1` [Example 15] the IC50 (platelet aggregation; [1]) was 0.003 µM and the IC50 (platelet aggregation; [2]) was 0.13 µM.

`COc1ccc(-c2nc3c(nc2-c2ccc(OC)cc2)CCCC3)cc1` [Example 3, 2,3-bis(p-methoxyphenyl)-5,6,7,8-tetrahydroquinoxaline] showed an IC50 (platelet aggregation; [1]) of 0.015 µM and an IC50 (platelet aggregation; [2]) of 0.024 µM.

In the case of `COc1ccc(-c2ncc(Cl)nc2-c2ccc(OC)cc2)cc1` [Example 12, 2,3-bis(p-methoxyphenyl)-5-chloropyrazine], the IC50 (platelet aggregation; [1]) is reported as 0.0038 µM and the IC50 (platelet aggregation; [2]) is reported as 0.0098 µM.

In the case of `Clc1ccc(Cc2cnc(-c3ccccc3)c(-c3ccccc3)n2)cc1` [Example 7, 2,3-diphenyl-5-(p-chlorobenzyl)pyrazine], the IC50 (platelet aggregation; [1]) is reported as 82 µM and the IC50 (platelet aggregation; [2]) is reported as 34 µM.

With `CCc1ncc(-c2ccccc2)nc1-c1ccccc1` [Example 2, 2-ethyl-3,5-diphenylpyrazine] the IC50 (platelet aggregation; [1]) was 6 µM and the IC50 (platelet aggregation; [2]) was 19 µM.

Molecule `COc1ccc(-c2ncc(C(=O)O)nc2-c2ccc(OC)cc2)cc1` [Example 14, 2,3-bis(p-methoxyphenyl)-pyrazine-5-carboxylic acid] has an IC50 (platelet aggregation; [1]) of 0.26 µM and an IC50 (platelet aggregation; [2]) of 5 µM.

In the case of `COc1ccc(-c2nc3ccccc3nc2-c2ccc(OC)cc2)cc1` [Example 4, 2,3-bis(p-methoxyphenyl)quinoxaline], the IC50 (platelet aggregation; [1]) is reported as 0.038 µM and the IC50 (platelet aggregation; [2]) is reported as 0.0098 µM.

With `Clc1ccccc1Cc1cnc(-c2ccccc2)c(-c2ccccc2)n1` [Example 5, 2,3-diphenyl-5-(o-chlorobenzyl)pyrazine] the IC50 (platelet aggregation; [1]) was 4.4 µM and the IC50 (platelet aggregation; [2]) was 36 µM.

In the case of `COc1ccc(-c2nc(Cl)c(Cl)nc2-c2ccc(OC)cc2)cc1` [Example 11, 2,3-bis(p-methoxyphenyl)-5,6-dichloropyrazine], the IC50 (platelet aggregation; [1]) is reported as 0.014 µM and the IC50 (platelet aggregation; [2]) is reported as 0.22 µM.

For `Cc1cnc(-c2ccc(C#N)cc2)c(-c2ccc(C#N)cc2)n1` [X=-CN, R2=H, R3=-CH3], the IC50 (platelet aggregation; [1]) was 1 µM and the IC50 (platelet aggregation; [2]) was 1 µM.

`c1ccc(-c2ncc(Cc3cccc4ccccc34)nc2-c2ccccc2)cc1` [Example 10, 2,3-diphenyl-5-(l-naphthyl)methylpyrazine] was tested, and the IC50 (platelet aggregation; [1]) was 43 µM and the IC50 (platelet aggregation; [2]) was 31 µM.

`Brc1ccc(Cc2cnc(-c3ccccc3)c(-c3ccccc3)n2)cc1` [Example 8, 2,3-diphenyl-5-(p-bromobenzyl)pyrazine] was tested, and the IC50 (platelet aggregation; [1]) was 16 µM and the IC50 (platelet aggregation; [2]) was 100 µM.

`CCc1nc(CC)c(-c2ccccc2)nc1-c1ccccc1` [Example 1, 2,6-diethyl-3,5-diphenylpyrazine] was tested, and the IC50 (platelet aggregation; [1]) was 1.7 µM and the IC50 (platelet aggregation; [2]) was 0.39 µM.

`COc1ccc(-c2ncc(C#N)nc2-c2ccc(OC)cc2)cc1` [Example 13, 2,3-bis(p-methoxyphenyl)-5-cyanopyrazine] showed an IC50 (platelet aggregation; [1]) of 0.024 µM, an IC50 (platelet aggregation; [2]) of 0.015 µM and an IC50 (cyclooxygenase) of 5 µM.

Work on `CN(C)c1ccc(Cc2cnc(-c3ccccc3)c(-c3ccccc3)n2)cc1` [Example 9, 2,3-diphenyl-5-(p-dimethylaminobenzyl)pyrazine] yielded an IC50 (platelet aggregation; [1]) of 84 µM and an IC50 (platelet aggregation; [2]) of 74 µM.
